SMILES strings stand for the structures.

The target of series [1] is T1, human PPARγ ligand-binding site (Homo sapiens, UniProt P37231).
T1 construct: expressed in transfected cells; host or cells: CV-1 cells (African green monkey kidney)
T1 sequence (P37231 204-505): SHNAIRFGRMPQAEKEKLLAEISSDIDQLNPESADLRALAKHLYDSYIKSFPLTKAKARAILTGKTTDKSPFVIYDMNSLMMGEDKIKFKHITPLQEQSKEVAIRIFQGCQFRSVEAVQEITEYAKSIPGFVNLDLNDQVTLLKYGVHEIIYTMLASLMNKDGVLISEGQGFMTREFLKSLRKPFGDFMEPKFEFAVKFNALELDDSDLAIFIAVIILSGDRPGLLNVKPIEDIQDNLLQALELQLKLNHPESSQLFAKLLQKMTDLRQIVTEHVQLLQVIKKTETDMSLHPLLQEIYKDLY
Nature of the series: PPARγ ligand activity, GAL4-hPPARγ luciferase reporter assay in CV-1 cells. The format is cell-based. To be noted: for PPARγ ligand activity: relative to non-treatment control (DMSO) = 100, average ± standard error, n=4. As to the method: CV-1 cells (cultured cells derived from kidneys of male African green monkeys) were implanted on 24-well culture plates so as to be […]/well and cultured at 37° C. in 5% CO2 for 24 hours. As a medium, DMEM (Dulbecco's Modified Eagle Medium; manufactured by GIBCO) containing 10% FBS (fetal bovine serum) and a 10 mg/mL penicillin streptomycin solution was used. Using the Lipofectamine system (trade name; manufactured by Invitrogen Corporation), pM-hPPARγ and p4×UASg-tk-luc were transfected. The above-noted pM-hPPARγ was a chimeric protein-expression plasmid binding GAL4 gene (amino acid sequence 1-147) and human PPARγ ligand-binding site gene (amino acid sequence 204-505), whereas the above-noted p4×UASg-tk-luc was a reporter plasmid containing four copies of a responsive element (UAS) of GAL 4 upstream of a luciferase gene. About 24 hours after the transfection, samples of bergamottin at respective concentrations (0.1, 1.0, 10, 50 and 100 μM) were added to the above-described media, followed by 24 hour incubation. The above-noted samples were prepared by dissolving bergamottin in dimethyl sulfoxide (DMSO). Instead of the above-noted sample, DMSO was used for non-treated control media. After the incubation, measurement was made using a Dual-Luciferase Reporter Gene Assay system (trade name; manufactured by Promega Corporation).
Similarly to the measurement group, as a control group, pM (a plasmid from which PPARγ ligand-binding site gene was removed) was used for measurement instead of pM-hPPARγ. For each sample, the ratio between average luminescence intensities of the measurement group and the control group (n=4) (measurement group/control group) was calculated, and an activity relative to the non-treatment control was determined as the PPARγ ligand activity of the sample.

In series [2] the test system is HepG2 cells (human hepatic cells). Nature of the series: Counting of the number of living cells (CellTiter 96 Aqueous One) in HepG2. The class given is cell-based. To be noted: 30 hours, measurement group/control group, DMSO control = 100. As to the method:
HepG2 was cultured to 80% to 90% confluence in a 100 mm/Collagen-Coated Dish (trade name, manufactured by Iwaki Glass Works, Co.). The medium was removed from the above-noted dish with a pipette and then HepG2 was washed with 2 mL of 1×PBS. Then, 2 mL of trypsin-EDTA was added, the above-noted dish was rotated slowly so that the trypsin-EDTA spread over the entire cells, this trypsin-EDTA was removed with a pipette, and the dish was allowed to stand still for 15 minutes in a CO2 incubator (37° C., 5%). To this dish, 12 mL of a growth medium was added, followed by mixing by pipetting, and 1 mL of this mixture solution was dispensed in each well of Collagen-Coated Microplates 12Well/Flat Bottom (trade name, manufactured by Iwaki Glass Works, Co.). After the cells were checked using a microscope, the wells were cultured in a CO2 incubator (37° C., 5%) for one to two days. After checking that 80% to 90% confluence was achieved using the microscope, a medium replacement was carried out by removing the medium and adding 800 μL of a medium containing bergamottin. […] Using this collected medium, the number of living cells were counted, and the Western blotting and the ELISA measurement were carried out similarly to the above. From the result of the ELISA, the ratio of the VLDL secretion amount between the measurement group and the non-treated control group (measurement group/control group) was calculated for each sample.
The measurement was made using CellTiter 96 Aqueous One Solution Cell Proliferation Assay (trade name, manufactured by Promega Corporation). […] 100 μL of this mixture solution was dispensed to each of three wells of ELISA PLATE 96well (trade name, manufactured by Iwaki Glass Works, Co.), and the absorbance at 490 nm was measured. The measurement was made using wallac ARVOsx (trade name, PerkinElmer Life Sciences, PerkinElmer, Inc.), and the mode of measurement was Absorbance (490 nm, 1.0 S). The ratio of the number of living cells between the measurement group and the non-treated control group (measurement group/control group) was calculated for each sample.

As to `CC(C)=CCC/C(C)=C/COc1c2ccoc2cc2oc(=O)ccc12` [Bergamottin, bergamottin], the PPARγ ligand activity in series [1] (0.1 μM) is 90 ± 5.7; in series [1] (1.0 μM) it was 132 ± 12.0; in series [1] (10 μM), 388 ± 41.4; in series [1] (50 μM) it was 961 ± 72.1; in series [1] (100 μM), 1032 ± 248.3. The “PPARγ activity level compared with catechin” value in series [1] (no catechin data shown) is “higher than that of catechin”. The results for the “Number of living cells (%)” value in series [2] (10 μM), in series [2] (20 μM) and in series [2] (50 μM) were 99.6%, 97.2% and 99.8%, respectively.

The values are drawn from US8257755B2, “Metabolic syndrome-improving agent and medicine, supplement, functional food and food additive containing the same” (ARKRAY, Inc., priority 2005, dated 2012).
